The IC50 is the concentration at which inhibition is half-maximal.

Structures are written as SMILES. Where two headings read alike, the source gives them in different places.

The test system of the test is Aβ42. Put plainly: Cellular assay for inhibition of Aβ1-42 production (H4 APP751 SWE clone 8.20). In kind it is cell-based. The note with it: H4 APP751 SWE clone 8.20 cells, 19 h incubation. As to the method:
Cellular Assays for Inhibition of Aβ1-40 and Aβ1-42 Production
H4 cells stably transfected with APP751 containing the Swedish mutation (H4 APP751 SWE clone 8.20, developed at BMS) were maintained in log phase through twice weekly passage at a 1:20 split. […] Following incubation for 19 h in 5% CO2 at 37° C., plates were briefly centrifuged (1000 rpm, 5 min). A 10 μl aliquot from each well was transferred to a second assay plate (Costar 3709) for Aβ40 measurements. Antibody cocktails were freshly prepared by dilution into 40 mM Tris-HCl (pH 7.4) with 0.2% BSA and added to assay plates. For Aβ42 measurements, antibodies specific for the Aβ42 neoepitope (565, developed at BMS; conjugated to the Wallac reagent (Perkin Elmer)) and the N-terminal sequence of Aβ peptide (26D6, developed at SIBIA; conjugated to APC (Perkin Elmer)) were mixed and 20 μl of the mixture was added to each well of the incubated cell plate yielding a final concentration of 0.8 ng/well 565 and 75 ng/well 26D6. For the Aβ40 measurements, antibodies specific for the Aβ40 neoepitope (TSD, developed at BMS; conjugated to the Wallac reagent (Perkin Elmer)) and 26D6 as described above were mixed and 20 μl of the mixture was added to the 10 μl aliquots which had been removed previously from the cell plate yielding a final concentration of 1.6 ng/well TSD and 17.5 ng/well 26D6. Assay plates containing antibodies were sealed with aluminum foil and incubated overnight at 4° C. Signal was determined using a Viewlux counter (Perkin Elmer) and IC50 values determined using curve fitting in CurveMaster (Excel Fit based).

[1] abbreviates: read-out: Activity Rating (Aβ42 cellular IC50), class symbol.
[2] abbreviates: 19 h, read-out: Activity Rating (Aβ42 cellular IC50), class symbol.
Where [3] appears, read: unit inferred, read-out: Activity Rating (Aβ42 cellular IC50), numeric value.

Take `Cc1ncn(-c2ccc3cc2OCCCCNc2nc(nc4c2CN(C)CC4c2ccc(F)cc2)N3)n1` (racemic) [Example 70A, 19-(4-fluorophenyl)-17-methyl-7-(3-methyl-1H-1,2,4-triazol-1-yl)-11,12,13,14,16,17,18,19-octahydro-10H-15,2-(azeno)-8,4-(metheno)pyrido[3,4-h][1,6,10,12]oxatriazacycloheptadecine]: the IC50 under setting [1] was in the range of 10 to 100 nM.
`Cc1ncn(-c2ccc3cc2OCCCCNc2nc(nc4c2CN(C)CC4c2ccc(F)cc2)N3)n1` (racemic) [Example 70B, 19-(4-fluorophenyl)-17-methyl-7-(3-methyl-1H-1,2,4-triazol-1-yl)-11,12,13,14,16,17,18,19-octahydro-10H-15,2-(azeno)-8,4-(metheno)pyrido[3,4-h][1,6,10,12]oxatriazacycloheptadecine]: the IC50 under setting [2] was below 10 nM.
Still for that read-out and setting: for `CN1Cc2c3nc(nc2C(c2ccc(F)cc2)C1)Nc1ccc(C#N)c(c1)OCCCCN3` (racemic) [Example 71, 7-cyano-19-(4-fluorophenyl)-17-methyl-11, 12, 13,14,16,17,18,19-octahydro-10H-15,2-(azeno)-8,4-(metheno)pyrido[3,4-h][1,6,10,12]oxatriazacycloheptadecine] the value was 10 to 100 nM; for `CN1Cc2c(nc3nc2N(C)C/C=C\COc2cc(ccc2C#N)N3)C(c2ccc(F)cc2)C1` (racemic) [Example 74, (11Z)-14,17-dimethyl-7-cyano-19-(4-fluorophenyl)-13,14,16,17,18,19-hexahydro-10H-15,2-(azeno)-8,4-(metheno)pyrido[3,4-h][1,6,10,12]oxatriazacycloheptadecine], 10 to 100 nM.
For the molecule `Clc1cn(-c2ccc3cc2OC/C=C\CCc2nc(nc4c2CCC4c2ccccc2)N3)cn1` (single isomer, unassigned) [Example 16A, (11Z)-7-(4-chloro-1H-imidazol-1-yl)-18-phenyl-10,13,14,16,17,18-hexahydro-15,2-(azeno)-8,4-(metheno)cyclopenta[h][1,10,12]oxadiazacycloheptadecine], under setting [1], the concentration for half-maximal inhibition (IC50) was below 10 nM.
For `Clc1cn(-c2ccc3cc2OC/C=C\CCc2nc(nc4c2CCC4c2ccccc2)N3)cn1` (single isomer, unassigned) [Example 16B, (11Z)-7-(4-chloro-1H-imidazol-1-yl)-18-phenyl-10,13,14,16,17,18-hexahydro-15,2-(azeno)-8,4-(metheno)cyclopenta[h][1,10,12]oxadiazacycloheptadecine], the concentration for half-maximal inhibition (IC50) under setting [1] lay within 10 to 100 nM.
The same measure, in the same setting: the same measure for `N#Cc1ccc2cc1OCCNCCNc1nc(nc3c1CCC3c1ccc(F)cc1)N2` (single isomer, unassigned) [Example 26A, 7-cyano-19-(4-fluorophenyl)-11,12,13,14,15,17,18,19-octahydro-10H-16,2-(azeno)-8,4-(metheno)cyclopenta[i][1,4,7,11,13]oxatetraazacyclooctadecine]: 10 to 100 nM; for `N#Cc1ccc2cc1OCCNCCNc1nc(nc3c1CCC3c1ccc(F)cc1)N2` (single isomer, unassigned) [Example 26B, 7-cyano-19-(4-fluorophenyl)-11,12,13,14,15,17,18,19-octahydro-10H-16,2-(azeno)-8,4-(metheno)cyclopenta[i][1,4,7,11,13]oxatetraazacyclooctadecine]: 100 to 1000 nM; for `CN1CCNc2nc(nc3c2CCC3c2ccc(F)cc2)Nc2ccc(C#N)c(c2)OCC1` (single isomer, unassigned) [Example 27A, 7-cyano-19-(4-fluorophenyl)-12-methyl-11,12,13,14,15,17,18,19-octahydro-10H-16,2-(azeno)-8,4-(metheno)cyclopenta[i][1,4,7,11,13]oxatetraazacyclooctadecine]: 10 to 100 nM.
In the case of `CN1CCNc2nc(nc3c2CCC3c2ccc(F)cc2)Nc2ccc(C#N)c(c2)OCC1` (single isomer, unassigned) [Example 27B, 7-cyano-19-(4-fluorophenyl)-12-methyl-11,12,13,14,15,17,18,19-octahydro-10H-16,2-(azeno)-8,4-(metheno)cyclopenta[i][1,4,7,11,13]oxatetraazacyclooctadecine], under setting [1], the IC50 fell in the range of 100 to 1000 nM.
In the case of `CN1CCCCOc2cc(ccc2C#N)Nc2nc3c(c1n2)CCC3c1ccc(F)cc1F` (single isomer, unassigned) [Example 32A, 7-cyano-18-(2,4-difluorophenyl)-14-methyl-10,11,12,13,14,16,17,18-octahydro-15,2-(azeno)-8,4-(metheno)cyclopenta[h][1,6,10,12]oxatriazacycloheptadecine], under setting [1], the IC50 is 10 to 100 nM.
As to `CN1CCCCOc2cc(ccc2C#N)Nc2nc3c(c1n2)CCC3c1ccc(F)cc1F` (single isomer, unassigned) [Example 32B, 7-cyano-18-(2,4-difluorophenyl)-14-methyl-10,11,12,13,14,16,17,18-octahydro-15,2-(azeno)-8,4-(metheno)cyclopenta[h][1,6,10,12]oxatriazacycloheptadecine], the IC50 under setting [1] fell in the range of 100 to 1000 nM.
Regarding `CN1CCCCOc2cc(ccc2C#N)Nc2nc3c(c1n2)CCC3c1ccccc1` (single isomer, unassigned) [Example 34A, 7-cyano-14-methyl-18-phenyl-10,11,12,13,14,16,17,18-octahydro-15,2-(azeno)-8,4-(metheno)cyclopenta[h][1,6,10,12]oxatriazacycloheptadecine], the IC50 under setting [3] was determined as 21 nM.
On to `CN1CCCCOc2cc(ccc2C#N)Nc2nc3c(c1n2)CCC3c1ccccc1` (single isomer, unassigned) [Example 34B, 7-cyano-14-methyl-18-phenyl-10,11,12,13,14,16,17,18-octahydro-15,2-(azeno)-8,4-(metheno)cyclopenta[h][1,6,10,12]oxatriazacycloheptadecine], for which the IC50 under setting [3] is 160 nM.
In the case of `Cc1ncn(-c2ccc3cc2OCCNCCNc2nc(nc4c2CCC4c2ccc(F)cc2)N3)n1` (single isomer, unassigned) [Example 55A, 19-(4-fluorophenyl)-7-(3-methyl-1H-1,2,4-triazol-1-yl)-11,12,13,14,15,17,18,19-octahydro-10H-16,2-(azeno)-8,4-(metheno)cyclopenta[i][1,4,7,11,13]oxatetraazacyclooctadecine], the IC50 under setting [1] lay in the range of 10 to 100 nM.
With `Cc1ncn(-c2ccc3cc2OCCNCCNc2nc(nc4c2CCC4c2ccc(F)cc2)N3)n1` (single isomer, unassigned) [Example 55B, 19-(4-fluorophenyl)-7-(3-methyl-1H-1,2,4-triazol-1-yl)-11,12,13,14,15,17,18,19-octahydro-10H-16,2-(azeno)-8,4-(metheno)cyclopenta[i][1,4,7,11,13]oxatetraazacyclooctadecine], the IC50 under setting [2] is 10 to 100 nM.
Take `Cc1ncn(-c2ccc3cc2OCC(O)CCNc2nc(nc4c2CCC4c2ccc(F)cc2)N3)n1` (single isomer, unassigned) [Example 72A, 18-(4-fluorophenyl)-7-(3-methyl-1H-1,2,4-triazol-1-yl)-10,11,12,13,14,16,17,18-octahydro-15,2-(azeno)-8,4-(metheno)cyclopenta[h][1,6,10,12]oxatriazacycloheptadecin-11(3H)-ol]: the IC50 under setting [1] was below 10 nM.
As to `Cc1ncn(-c2ccc3cc2OCC(O)CCNc2nc(nc4c2CCC4c2ccc(F)cc2)N3)n1` (single isomer, unassigned) [Example 72B, 18-(4-fluorophenyl)-7-(3-methyl-1H-1,2,4-triazol-1-yl)-10,11,12,13,14,16,17,18-octahydro-15,2-(azeno)-8,4-(metheno)cyclopenta[h][1,6,10,12]oxatriazacycloheptadecin-11(3H)-ol], the IC50 under setting [2] was below 10 nM.
As to `Cc1ncn(-c2ccc3cc2OCC(O)CCNc2nc(nc4c2CCC4c2ccc(F)cc2)N3)n1` (single isomer, unassigned) [Example 72C, 18-(4-fluorophenyl)-7-(3-methyl-1H-1,2,4-triazol-1-yl)-10,11,12,13,14,16,17,18-octahydro-15,2-(azeno)-8,4-(metheno)cyclopenta[h][1,6,10,12]oxatriazacycloheptadecin-11(3H)-ol], the IC50 under setting [1] is below 10 nM.
As to `Cc1ncn(-c2ccc3cc2OCC(O)CCNc2nc(nc4c2CCC4c2ccc(F)cc2)N3)n1` (single isomer, unassigned) [Example 72D, 18-(4-fluorophenyl)-7-(3-methyl-1H-1,2,4-triazol-1-yl)-10,11,12,13,14,16,17,18-octahydro-15,2-(azeno)-8,4-(metheno)cyclopenta[h][1,6,10,12]oxatriazacycloheptadecin-11(3H)-ol], the IC50 under setting [1] was below 10 nM.
`N#Cc1ccc2cc1OCC(O)CCNc1nc(nc3c1CCC3c1ccc(F)cc1)N2` (single isomer, unassigned) [Example 73A, 7-cyano-18-(4-fluorophenyl)-10,11,12,13,14,16,17,18-octahydro-15,2-(azeno)-8,4-(metheno)cyclopenta[h][1,6,10,12]oxatriazacycloheptadecin-11(3H)-ol]: the IC50 under setting [2] is 10 to 100 nM.

The values are drawn from patent US8637523B2, “Compounds for the reduction of beta-amyloid production” (Bristol-Myers Squibb Company, priority 2010, dated 2014).
